Legend:
[1] = test system: SP-induced thermal hyperalgesia; test: SP-induced thermal hyperalgesia (withdrawal latency) after intrathecal pre-administration of peptide; assay type: in vivo, rat; conditions: 10^-3M (10 nmol/10 μl) peptide intrathecal, FIG. 7
Source text: In this test, the effects of intrathecal pre-administration with D-EKC/D (1), (2), and (3) on the induction of thermal hyperalgesia following intrathecal administration of SP were confirmed using as an index thermal hyperalgesia, which is one type of pain-related behavior. The effects can be evaluated based on withdrawal latency period, which is the time required for withdrawal response to take place after application of noxious thermal stimulation to plantar using infrared rays.
In Example 4, 10^−3M (10 nmol/10 μl) D-EKC/D (1), (2), or (3) was administered to intrathecally catheterized rats via catheters, intrathecal administration of 10^−6M (10 pmol/10 μl) SP was performed at 4 hours and at 8 hours after administration of D-EKC/D, the presence or the absence of hyperalgesia following intrathecal administration of SP was evaluated based on the time (latency period) required for withdrawal response to take place, the latency period following SP administration in rats pretreated with D-EKC/D and the latency period resulting from administration of SP alone were compared, and thus the effects of preadministration of D-EKC/D (1), (2), and (3) were evaluated.

[2] = test system: carrageenan-induced inflammation; test: carrageenan-induced increase in paw size after intrathecal pre-administration of peptide; assay type: in vivo, rat
Experimental: In Example 6, 10^−3M (10 nmol/10 μl) D-EKC/D (3), (5), or (7), Spantide I, or saline (10 μl) was administered to intrathecally catheterized rats via catheters. Four hours later, 100 μl of 2% carrageenan (2 mg/100 μl) was subcutaneously administered to rat plantar.
Paw size was measured with time for 60 minutes after carrageenan administration. The paw size (control) before carrageenan administration was designated as the basal level, and the increases in paw size were then calculated.

## Ala-Tyr-Gln-Leu-Glu-His-Thr-Phe-Gln-DTrp-Leu-Leu-NH2 (AYQLEHTFQXLL; HELM PEPTIDE1{A.Y.Q.L.E.H.T.F.Q.[dW].L.L.[am]}$$$$V2.0; N-terminus assumed; SMILES CC(C)C[C@H](NC(=O)[C@H](CC(C)C)NC(=O)[C@@H](Cc1c[nH]c2ccccc12)NC(=O)[C@H](CCC(N)=O)NC(=O)[C@H](Cc1ccccc1)NC(=O)[C@@H](NC(=O)[C@H](Cc1c[nH]cn1)NC(=O)[C@H](CCC(=O)O)NC(=O)[C@H](CC(C)C)NC(=O)[C@H](CCC(N)=O)NC(=O)[C@H](Cc1ccc(O)cc1)NC(=O)[C@H](C)N)[C@@H](C)O)C(N)=O) [D-EKC/D (3)]
[1]; 10^-6M SP 4 hours later, saline about 20 seconds, SP about 13 seconds
  effect on latency period following administration of SP: significantly attenuated
[1]; 10^-6M SP 8 hours later
  effect on latency period following administration of SP: significant attenuation
[2]; 10^-3M (10 nmol/10 μl) peptide intrathecal, 2% carrageenan 4 hours later, FIG. 9A
  rate of increase of paw sizes: significant decreases
[2]; 10^-3M intrathecal, carrageenan 4 hours later
  effects on paw size and withdrawal time compared with Spantide I: sustained to a greater extent than the effects of Spantide I

Reference: patent US8853359B2, “Endokinin C/D-derived peptides” (University of Miyazaki, priority 2009, dated 2014)
